How the values were obtained:
[1] = system: MCP-1/CCL2 secretion by Trex1-KO BMM; experiment: Inhibition of MCP-1/CCL2 secretion by Trex1-KO bone marrow-derived macrophages; type: cell-based, mice; parameters: key to BMM IC50 M (MCP-1): A: an IC50 value less than 5 μM; B: an IC50 value between 5 and 20 μM; where an IC50 value could not be calculated from the data; conditions: MCP-1 secretion; for IC50: Mus musculus, Macrophage, read-out: BMM IC50 M (MCP-1)
Protocol: (§1) A cellular assay can be used to asses the compounds of the invention for their ability to inhibit cytokine production. Bone marrow macrophages harvested from mice can be used to determine response as a function of compound concentration.
(§2) The inhibition of secreted cytokine was measured in bone marrow-derived macrophages (BMMs) from diseased mice to evaluate the potency of compounds of the invention as described herein. […] To derive bone marrow macrophages, marrow extracted from the femurs and tibias were harvested from Trex1-KO mice was cultured in growth media supplemented with macrophage colony-stimulating factor (M-CSF). Differentiated BMM were harvested and frozen for subsequent experimentation. For treatment with compound C1089 (see Example 13), a frozen stock of Trex1-KO BMM was thawed and 1×10^5 cells were plated in 96 well format. BMMs were treated with a dilution series of C1089 and incubated overnight at 37° C. 5% CO2, at which point cellular supernatants were harvested and stored at −80° C. for subsequent analysis. The media used for this dilution series was without FBS. Remaining cells were evaluated for viability using Cell Titer Glo 2.0 kit according to the manufacturer instructions. BMM supernatants were evaluated for the secreted cytokine […] (RANTES/CCL5) or for secreted cytokine monocyte chemoattractant protein 1 (MCP-1/CCL2) using cytometric bead array mouse Flex Set kits (BD Biosciences). Cytokine concentration was calculated from a standard curve and normalized to vehicle (DMSO) treated cells.

[2] = system: RANTES/CCL5 secretion by Trex1-KO BMM; experiment: Inhibition of RANTES/CCL5 secretion by Trex1-KO bone marrow-derived macrophages; type: cell-based, mice; parameters: key to BMM IC50 R (RANTES): A: an IC50 value less than 5 μM; B: an IC50 value between 5 and 20 μM; where an IC50 value could not be calculated from the data; conditions: RANTES secretion; for IC50: Mus musculus, Macrophage, read-out: BMM IC50 R (RANTES)
Protocol: as §1, §2

[3] = target: Human cGAS amino acids 155-522 (Homo sapiens (Human), UniProt Q8N884); experiment: cGAS biochemical activity assay (ATP remaining, Kinase-Glo Max luminescence); conditions: human cGAS 155-522, ATP remaining (Kinase-Glo Max); read-out: cGAS IC50
[4] = system: cGAS/STING pathway in THP1 cells; experiment: THP1 cell-based cGAS/STING pathway activity assay (IRF-3-linked luciferase reporter); conditions: Homo sapiens, THP-1
Outline: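 THP1 cells carrying an IRF-3-driven luciferase reporter were read across a range of compound concentrations, and IC50 values were derived from these concentration responses; the assay upper limit was 100 μM.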

Human cGAS amino acids 155-522, sequence (Q8N884 157-522): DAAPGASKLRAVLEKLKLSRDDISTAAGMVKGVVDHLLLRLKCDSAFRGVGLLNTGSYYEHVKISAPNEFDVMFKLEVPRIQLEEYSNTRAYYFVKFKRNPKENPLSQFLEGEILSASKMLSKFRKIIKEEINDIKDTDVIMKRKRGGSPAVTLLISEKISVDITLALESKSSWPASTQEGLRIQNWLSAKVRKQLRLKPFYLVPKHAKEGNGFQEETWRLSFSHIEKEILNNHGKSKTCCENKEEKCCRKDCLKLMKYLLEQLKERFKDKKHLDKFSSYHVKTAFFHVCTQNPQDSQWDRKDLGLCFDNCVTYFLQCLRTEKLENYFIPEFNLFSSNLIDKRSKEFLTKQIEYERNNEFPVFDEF

SMILES	IC50 [1] [µM]	BMM IC50 R (RANTES) [2]	IC50 [3] [µM]	IC50 [4] [µM]	BMM IC50 M (MCP-1) [1]	IC50 [2] [µM]
COc1nccc2oc(-c3c(C)[nH]c4c(-c5ccccc5)c(C#N)nn4c3=O)nc12 [Compound C1167, 6-(4-methoxyoxazolo[4,5-c]pyridin-2-yl)-5-methyl-7-oxo-3-phenyl-4,7-dihydropyrazolo[1,5-a]pyrimidine-2-carbonitrile]	–	C	< 20	< 20	C	–
CO[C@@](c1ccccc1)(c1nnc(-c2c(C)[nH]c3c(-c4ccccc4)c(C(F)(F)F)nn3c2=O)o1)C(F)(F)F [Compound D1028, (S)-5-methyl-3-phenyl-6-(5-(2,2,2-trifluoro-1-methoxy-1-phenylethyl)-1,3,4-oxadiazol-2-yl)-2-(trifluoromethyl)pyrazolo[1,5-a]pyrimidin-7(4H)-one]	–	C	< 20	> 100	C	–
COc1cc(Br)cc(NC(=O)c2c(C)[nH]c3c(-c4ccccc4)c(C(F)(F)F)nn3c2=O)c1 [Compound A1129, N-(3-bromo-5-methoxyphenyl)-5-methyl-7-oxo-3-phenyl-2-(trifluoromethyl)-4,7-dihydropyrazolo[1,5-a]pyrimidine-6-carboxamide]	5 to 20	C	< 20	20 to 100	–	–
COc1cc(Cl)cc(NC(=O)c2c(C)[nH]c3c(-c4ccccc4)c(C(F)(F)F)nn3c2=O)c1 [Compound A1134, N-(3-chloro-5-methoxyphenyl)-5-methyl-7-oxo-3-phenyl-2-(trifluoromethyl)-4,7-dihydropyrazolo[1,5-a]pyrimidine-6-carboxamide]	< 5	–	< 20	< 20	–	< 5
COCCOCc1[nH]c2c(-c3ccccc3)c(C(F)(F)F)nn2c(=O)c1-c1nc2c(OC)cccc2o1 [Compound C1151, 6-(4-methoxybenzo[d]oxazol-2-yl)-5-((2-methoxyethoxy)methyl)-3-phenyl-2-(trifluoromethyl)pyrazolo[1,5-a]pyrimidin-7(4H)-one]	–	–	< 20	< 20	C	5 to 20
COc1cc(N)cc2oc(-c3c(C)[nH]c4c(-c5ccccc5)c(C#N)nn4c3=O)nc12 [Compound C1175, 6-(6-amino-4-methoxybenzo[d]oxazol-2-yl)-5-methyl-7-oxo-3-phenyl-4,7-dihydropyrazolo[1,5-a]pyrimidine-2-carbonitrile]	–	C	< 20	20 to 100	C	–
COc1cc(Cl)cc2oc(-c3c(C)[nH]c4c(-c5ccccc5)c(C#N)nn4c3=O)nc12 [Compound C1160, 6-(6-chloro-4-methoxybenzo[d]oxazol-2-yl)-5-methyl-7-oxo-3-phenyl-4,7-dihydropyrazolo[1,5-a]pyrimidine-2-carbonitrile]	–	C	< 20	> 100	C	–
Cc1[nH]c2c(-c3ccccc3)c(C(F)(F)F)nn2c(=O)c1-c1nnc(C#N)o1 [Compound D1071, 5-(5-methyl-7-oxo-3-phenyl-2-(trifluoromethyl)-4,7-dihydropyrazolo[1,5-a]pyrimidin-6-yl)-1,3,4-oxadiazole-2-carbonitrile]	5 to 20	–	< 20	< 20	–	< 5
COc1cccc2oc(-c3c(COCc4ccccc4)[nH]c4c(-c5ccccc5)c(C(F)(F)F)nn4c3=O)nc12 [Compound C1099, 5-((benzyloxy)methyl)-6-(4-methoxybenzo[d]oxazol-2-yl)-3-phenyl-2-(trifluoromethyl)pyrazolo[1,5-a]pyrimidin-7(4H)-one]	–	C	< 20	< 20	C	–
COCc1[nH]c2c(-c3ccccc3)c(C#N)nn2c(=O)c1-c1nc2c(OC)cc(Cl)cc2o1 [Compound C1145, 6-(6-chloro-4-methoxybenzo[d]oxazol-2-yl)-5-(methoxymethyl)-7-oxo-3-phenyl-4,7-dihydropyrazolo[1,5-a]pyrimidine-2-carbonitrile]	–	C	< 20	< 20	C	–
COc1cccc2oc(-c3c(C(F)(F)F)[nH]c4c(-c5ccccc5)c(C#N)nn4c3=O)nc12 [Compound C1118, 6-(4-methoxybenzo[d]oxazol-2-yl)-7-oxo-3-phenyl-5-(trifluoromethyl)-4,7-dihydropyrazolo[1,5-a]pyrimidine-2-carbonitrile]	–	–	< 20	< 20	C	< 5
Cc1[nH]c2c(-c3ccccc3)c(C(F)(F)F)nn2c(=O)c1-c1nc2c(OCc3ccccc3)cccc2o1 [Compound C1073, 6-(4-(benzyloxy)benzo[d]oxazol-2-yl)-5-methyl-3-phenyl-2-(trifluoromethyl)pyrazolo[1,5-a]pyrimidin-7(4H)-one]	–	C	< 20	< 20	C	–

Now from value to compound:

IC50 [1] [µM]	BMM IC50 R (RANTES) [2]	IC50 [3] [µM]	IC50 [4] [µM]	BMM IC50 M (MCP-1) [1]	IC50 [2] [µM]	SMILES
5 to 20	C	< 20	< 20	–	–	COc1cccc2oc(-c3c(C)[nH]c4c(-c5cccc(F)c5)c(C(F)(F)F)nn4c3=O)nc12 [Compound C1114, 3-(3-fluorophenyl)-6-(4-methoxybenzo[d]oxazol-2-yl)-5-methyl-2-(trifluoromethyl)pyrazolo[1,5-a]pyrimidin-7(4H)-one]
–	C	< 20	< 20	C	–	COc1c(Br)ccc2oc(-c3c(C)[nH]c4c(-c5ccccc5)c(C(F)(F)F)nn4c3=O)nc12 [Compound C1082, 6-(5-bromo-4-methoxybenzo[d]oxazol-2-yl)-5-methyl-3-phenyl-2-(trifluoromethyl)pyrazolo[1,5-a]pyrimidin-7(4H)-one]
5 to 20	–	< 20	< 20	–	5 to 20	COc1ccc(Br)c2oc(-c3c(C)[nH]c4c(-c5ccccc5)c(C(F)(F)F)nn4c3=O)nc12 [Compound C1081, 6-(7-bromo-4-methoxybenzo[d]oxazol-2-yl)-5-methyl-3-phenyl-2-(trifluoromethyl)pyrazolo[1,5-a]pyrimidin-7(4H)-one]
–	C	20 to 250	> 100	C	–	Cc1[nH]c2c(-c3ccccc3)c(C(F)(F)F)nn2c(=O)c1-c1nc2c(C(N)=O)cccc2o1 [Compound C1074, 2-(5-methyl-7-oxo-3-phenyl-2-(trifluoromethyl)-4,7-dihydropyrazolo[1,5-a]pyrimidin-6-yl)benzo[d]oxazole-4-carboxamide]
5 to 20	–	< 20	< 20	–	< 5	COc1cc(Cl)cc2oc(-c3c(C)[nH]c4c(-c5ccccc5)c(C(F)(F)F)nn4c3=O)nc12 [Compound C1105, 6-(6-chloro-4-methoxybenzo[d]oxazol-2-yl)-5-methyl-3-phenyl-2-(trifluoromethyl)pyrazolo[1,5-a]pyrimidin-7(4H)-one]
–	C	< 20	20 to 100	C	–	COc1cc(N)cc2oc(-c3c(C)[nH]c4c(-c5ccccc5)c(C(F)(F)F)nn4c3=O)nc12 [Compound C1123, 6-(6-amino-4-methoxybenzo[d]oxazol-2-yl)-5-methyl-3-phenyl-2-(trifluoromethyl)pyrazolo[1,5-a]pyrimidin-7(4H)-one]
–	C	< 20	20 to 100	C	–	COc1c(C#N)ccc2oc(-c3c(C)[nH]c4c(-c5ccccc5)c(C(F)(F)F)nn4c3=O)nc12 [Compound C1126, 4-methoxy-2-(5-methyl-7-oxo-3-phenyl-2-(trifluoromethyl)-4,7-dihydropyrazolo[1,5-a]pyrimidin-6-yl)benzo[d]oxazole-5-carbonitrile]
5 to 20	–	< 20	< 20	–	< 5	CSc1cccc2oc(-c3c(C)[nH]c4c(-c5ccccc5)c(C(F)(F)F)nn4c3=O)nc12 [Compound C1047, 5-methyl-6-(4-(methylthio)benzo[d]oxazol-2-yl)-3-phenyl-2-(trifluoromethyl)pyrazolo[1,5-a]pyrimidin-7(4H)-one]

— patent publication US10738056B2 (Aduro BioTech, Inc., priority 2017, dated 2020)
